Key:
ERK1/2 = test: Phosphorylation of ERK1/2 in ETFR cells (Western blot); assay type: cell-based, rat; details: ETFR cells; fMLF at 100 nM
Protocol: ETFR cells were plated in Petri dishes and cultured in DMEM at 37° C. in humidified 5% CO2 atmosphere for 48 h. After further culture in serum-free DMEM overnight, the cells were treated with stimulants for indicated time periods. The reaction was stopped by adding 1 ml ice-cold PBS, and the cells were lysed in 1×SDS lysis buffer (62.5 mM Tris-HCl, 2% w/v SDS, 10% glycerol, 50 mM DTT, pH 6.8) and harvested into tubes for sonication. Proteins (50 μg for each sample) were resolved by SDS-PAGE and transferred onto nitrocellulose membranes (Bio-Rad, Hercules, Calif.). The membranes were blocked for 2 h at room temperature in 3% non-fat milk prepared in Tris-buffered saline-T (10 mM Tris-HCl, pH 7.5, 150 mM NaCl, 0.1% Tween 20) and probed with anti-p-ERK1/2, p-p38 MAPK, or p-Akt (1:1000) at room temperature for 1-2 h or at 4° C. overnight. The membranes were then washed and incubated with horseradish peroxidase-conjugated secondary antibodies diluted in Tris-buffered saline-T for 1 h at room temperature. The immune complexes on the membranes were visualized using ECL reagents. Total ERK1/2, p38 MAPK, and Akt were visualized by stripping the same membrane and probing with antibodies against total ERK1/2, p38 MAPK, and Akt.

PKC isozymes = test: PKC translocation in parental RBL cells; assay type: cell-based, rat; details: 100 nM fMLF, 10 μg/ml CaG or PMA 500 nM, 37° C. 10 min
PKCζ = PKCζ translocation in ETFR cells (confocal microscopy); assay type: cell-based, rat; details: 100 nM fMLF, 10 μg/ml CaG or PMA 500 nM, 37° C. 10 min
Protocol: (§1) ETFR cells were seeded on coverslips and cultured overnight in DMEM containing 1% FCS at 37° C. After further culture in FCS-free DMEM for 3 h, cells were treated with stimulants for indicated time periods at 37° C. and were then fixed in 4% paraformaldehyde for 5 min at room temperature. The cells were permeabilized with 0.2% Tween 20 for 30 min at 4° C. and the reaction was blocked with 5% goat normal serum for 15 min at room temperature. The rabbit anti-PKCα/β, δ, and ξ, antibodies (1:1000 in DPBS) were applied separately for 1 h at room temperature. After three rinses with DPBS, the cells were stained with FITC-labeled goat anti-rabbit secondary antibody (PharMingen, 1:1000 in DPBS) for 1 h at room temperature. The coverslips were mounted with an anti-fade, water-based mounting medium with Propidium Iodide (PI) (Vector Lab, Burlingamem, Calif.) and analyzed under a laser scanning confocal fluorescence microscope (Zeiss LSM510 NLO Meta, Jena, Germany). Excitation wavelengths 488 (for FITC) and 568 (for PI) nm were used to generate fluorescence emission in green and red, respectively.

monocytes = test: Chemotaxis assay, monocytes; assay type: cell-based, human; details: pre-incubation fMLF 100 nM or MMK-1 5 μM, 37° C. 30 min, washing; CaG 10 μg/ml
Protocol: Human PBMC were isolated from leukopacks obtained through the courtesy of Transfusion Medicine Department, National Institutes of Health Clinical Center (Bethesda, Md.) by Ficoll-Hypaque density gradient centrifugation. Monocytes were purified from human PBMC by Percoll gradient to yield>90% pure preparations. […] H. Ali and R. Snyderman, Duke University (Durham, N.C.) and maintained in the presence of 0.8 mg/ml geneticin (G418, Life Technologies, Rockville, Md.) in DMEM supplemented with 10% FCS. B. Chemotaxis assay Migration of phagocytes and ETFR cells was assessed using a 48-well microchemotaxis chamber (Neuroprobe, Cabin John, Md.) as previously described (Hu et al. (2001) J Leukoc Biol 70 15512). Briefly, different concentrations of stimulants were placed in the wells of the lower compartment of the chamber, and 50 μl cells (1.5×10^6 cells/ml for monocyte and neutrophil, 1×10^6 ETFR cells/ml) were added to the wells of the upper compartment. The lower and upper compartments were separated by either a 5-μm (for monocyte) or a 10-μm pore size, collagen-coated (for ETFR cells) polycarbonate filter (Osmonics, Livermore, Calif.). After incubation at 37° C. in humidified air with 5% CO2 (60 min for neutrophils, 90 min for monocytes, 4.5 h for ETFR cells), the filter was removed and stained, and the cells migrating across the filter were counted with light microscopy. The results are presented as the mean number of cells (±SD) in three high power fields (HPFs). […] After thorough washing with cold medium (RPMI 1640, 1% BSA), the cells were resuspended and assayed. To measure the effect of various signaling inhibitors, unless otherwise indicated, the cells were pre-incubated at 37° C. for 60 min with the inhibitors, and were then added to the upper wells of the chemotaxis chamber.

parental RBL cells = test: Chemotaxis assay, parental RBL cells; assay type: cell-based, rat; details: parental RBL cells without FPR
Protocol: Human PBMC were isolated from leukopacks obtained through the courtesy of Transfusion Medicine Department, National Institutes of Health Clinical Center (Bethesda, Md.) by Ficoll-Hypaque density gradient centrifugation. Monocytes were purified from human PBMC by Percoll gradient to yield>90% pure preparations. […] H. Ali and R. Snyderman, Duke University (Durham, N.C.) and maintained in the presence of 0.8 mg/ml geneticin (G418, Life Technologies, Rockville, Md.) in DMEM supplemented with 10% FCS. B. Chemotaxis assay Migration of phagocytes and ETFR cells was assessed using a 48-well microchemotaxis chamber (Neuroprobe, Cabin John, Md.) as previously described (Hu et al. (2001) J Leukoc Biol 70 15512). Briefly, different concentrations of stimulants were placed in the wells of the lower compartment of the chamber, and 50 μl cells (1.5×10^6 cells/ml for monocyte and neutrophil, 1×10^6 ETFR cells/ml) were added to the wells of the upper compartment. The lower and upper compartments were separated by either a 5-μm (for monocyte) or a 10-μm pore size, collagen-coated (for ETFR cells) polycarbonate filter (Osmonics, Livermore, Calif.). After incubation at 37° C. in humidified air with 5% CO2 (60 min for neutrophils, 90 min for monocytes, 4.5 h for ETFR cells), the filter was removed and stained, and the cells migrating across the filter were counted with light microscopy. […]

PKCα/β = PKCα/β translocation in ETFR cells; assay type: cell-based, rat; details: 100 nM fMLF, 10 μg/ml CaG or PMA 500 nM, 37° C. 10 min
Protocol: as §1

PKCδ = PKCδ translocation in ETFR cells; assay type: cell-based, rat; details: 100 nM fMLF, 10 μg/ml CaG or PMA 500 nM, 37° C. 10 min
Protocol: as §1, with “The cells were permeabilized with 0.2% Tween 20 for 30 min at 4° C. and the reaction was blocked with 5% goat normal serum for 15 min at room temperature.” left out, “Germany).” for “Germany). Excitation wavelengths 488 (for FITC) and 568 (for PI) nm were used to generate fluorescence emission in green and red, respectively.”

[1] = molecular target: human formylpeptide receptor (FPR), native or wild type, on cells (human) (UniProt P21462); test: displacement of 3 nM ^3[H]-fMLF from human monocytes, filter binding
[2] = molecular target: epitope-tagged human FPR stably expressed on rat basophilic leukemia (RBL) cells (ETFR cells) (human) (UniProt P21462); test: displacement of 3 nM ^3[H]-fMLF from ETFR cells, filter binding
[3] = molecular target: T1, epitope-tagged human FPR stably expressed on rat basophilic leukemia (RBL) cells (ETFR cells), P21462
T1 chain: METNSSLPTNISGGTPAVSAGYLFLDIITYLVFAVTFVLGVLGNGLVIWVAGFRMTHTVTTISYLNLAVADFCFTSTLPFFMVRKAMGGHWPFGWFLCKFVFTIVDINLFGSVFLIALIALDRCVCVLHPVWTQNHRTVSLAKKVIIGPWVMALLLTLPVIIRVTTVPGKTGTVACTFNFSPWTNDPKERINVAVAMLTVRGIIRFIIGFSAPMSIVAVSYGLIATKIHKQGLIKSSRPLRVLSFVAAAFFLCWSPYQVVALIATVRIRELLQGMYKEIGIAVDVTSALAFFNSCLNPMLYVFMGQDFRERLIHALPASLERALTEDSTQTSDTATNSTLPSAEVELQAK

[4] = molecular target: T2, human formylpeptide receptor (FPR), native or wild type, on cells, P21462
T2 chain: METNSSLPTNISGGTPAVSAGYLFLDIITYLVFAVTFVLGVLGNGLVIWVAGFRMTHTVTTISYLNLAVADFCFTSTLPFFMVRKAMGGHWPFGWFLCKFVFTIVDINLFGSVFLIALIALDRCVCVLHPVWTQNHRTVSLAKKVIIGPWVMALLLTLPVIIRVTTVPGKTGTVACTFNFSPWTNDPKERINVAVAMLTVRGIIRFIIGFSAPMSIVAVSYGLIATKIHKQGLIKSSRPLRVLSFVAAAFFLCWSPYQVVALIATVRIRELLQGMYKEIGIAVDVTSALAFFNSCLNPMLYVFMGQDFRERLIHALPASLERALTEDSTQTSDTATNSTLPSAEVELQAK

[5] = molecular target: T3, epitope-tagged human FPR stably expressed on rat basophilic leukemia (RBL) cells (ETFR cells) (human, UniProt P21462 1-350); test: displacement of 3 nM ^3[H]-fMLF from ETFR cells by unlabeled CaG, filter binding
T3 construct: whole, on cells; also called RBL cells transfected with FPR; not shown: neither its identity nor its position on FPR is stated
T3 sequence (looked up): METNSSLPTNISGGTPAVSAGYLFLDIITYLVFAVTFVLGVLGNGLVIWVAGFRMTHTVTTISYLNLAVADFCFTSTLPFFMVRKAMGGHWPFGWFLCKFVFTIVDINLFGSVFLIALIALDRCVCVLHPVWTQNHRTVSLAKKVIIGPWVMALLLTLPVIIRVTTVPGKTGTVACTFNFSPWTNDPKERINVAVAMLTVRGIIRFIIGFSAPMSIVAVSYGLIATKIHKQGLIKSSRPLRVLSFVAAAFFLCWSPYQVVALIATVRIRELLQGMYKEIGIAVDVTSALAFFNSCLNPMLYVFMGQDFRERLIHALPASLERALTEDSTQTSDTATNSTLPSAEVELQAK

[6] = molecular target: T4, human formylpeptide receptor (FPR), native or wild type, on cells (human, UniProt P21462 1-350); test: displacement of 3 nM ^3[H]-fMLF from human monocytes by unlabeled CaG, filter binding
T4 construct: whole, on cells; Used for assays on human monocytes and neutrophils (endogenous FPR) and on HEK293 cells transfected with wild type FPR
T4 sequence (looked up): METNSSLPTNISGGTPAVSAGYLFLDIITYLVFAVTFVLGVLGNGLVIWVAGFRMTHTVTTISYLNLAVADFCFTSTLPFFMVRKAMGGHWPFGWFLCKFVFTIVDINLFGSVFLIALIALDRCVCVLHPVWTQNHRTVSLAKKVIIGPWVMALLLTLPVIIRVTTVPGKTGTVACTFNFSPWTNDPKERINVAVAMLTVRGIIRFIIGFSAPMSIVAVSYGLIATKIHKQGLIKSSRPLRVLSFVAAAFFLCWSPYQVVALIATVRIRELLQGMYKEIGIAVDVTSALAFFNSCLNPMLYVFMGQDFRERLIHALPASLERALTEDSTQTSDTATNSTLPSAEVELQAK
From the text: The cells were then filtered onto Whatman paper discs, which were air-dried and measured for Remission.

[7] = molecular target: T3, epitope-tagged human FPR stably …; test: binding of ^125I-CaG (25 nM) to ETFR cells with increasing unlabeled ligand, analysed with the LIGAND program
Protocol: After incubation and rotation at room temperature for 1 h, the cells were pelleted through a 10% sucrose/PBS cushion for 1 min at 10,000 g. The supernatant was removed and the radioactivity associated with cell pellets was measured in a γ counter (CliniGamma, Pharmacia Biotech Inc.). The binding data were analyzed with a Macintosh computer-aided program LIGAND (Dr. P. Munson, Division of Computer Research and Technology, NIH, Bethesda, Md.).

## CSCC[C@H](NC=O)C(=O)N[C@@H](CC(C)C)C(=O)N[C@@H](Cc1ccccc1)C(=O)O [fMLF, formyl-methionyl-leucyl-phyenyalanine]
ERK1/2
  time of maximal effect on p-ERK: 1 min
PKC isozymes
  PKC translocation in parental RBL cells: Neither CaG nor fMLF stimulated PKC translocation in parental RBL cells
PKCζ
  translocation of PKCζ: promoted the translocation of not only PKCξ, but also PKCα/β
monocytes
  attenuation of monocyte chemotaxis to CaG after pre-incubation with agonist: attenuated monocyte response to CaG
Parental RBL cells
  migration of parental RBL cells: Neither CaG nor fMLF induced migration of parental RBL cells
PKCα/β
  translocation of PKCα/β: promoted the translocation of not only PKCξ, but also PKCα/β
PKCδ
  translocation of PKCδ: did not induce translocation of PKCδ

## synthetic N-formyl peptide fMLF (formyl-methionyl-leucyl-phenylalanine)
[1]
  IC50: 3 nM
[2]
  IC50: 3 nM

B1: Cathepsin G (CaG), purified from neutrophil granules (protein)
chain: IIGGRESRPHSRPYMAYLQIQSPAGQSRCGGFLVREDFVLTAAHCWGSNINVTLGAHNIQRRENTQQHITARRAIRHPQYNQRTIQNDIMLLQLSRRVRRNRNVNPVALPRAQEGLRPGTLCTVAGWGRVSMRRGTDTLREVQLRVQRDRQCLRIFGSYDPRRQICVGDRRERKAAFKGDSGGPLLCNNVAHGIVSYGKSSGVPPEVFTRVSSFLPWIRTTMRS
[3]
  phosphorylation of ERK1/2, p38 MAPK and Akt (Western blot): CaG also positively and rapidly (within 1-5 min) activated ERK1/2 (FIG. 5 A), p38 MAPK (FIG. 5 C), and Akt (FIG. 5 D)
[4]
  monocyte migration (chemotaxis), concentration of maximal activity: CaG dose-dependently induced monocyte migration (FIG. 1A), which reached maximal activity at a concentration of 5 µg/ml of the protein (200 nM)

B2: Cathepsin G (CaG), purified from neutrophil granules (enzyme)
chain: IIGGRESRPHSRPYMAYLQIQSPAGQSRCGGFLVREDFVLTAAHCWGSNINVTLGAHNIQRRENTQQHITARRAIRHPQYNQRTIQNDIMLLQLSRRVRRNRNVNPVALPRAQEGLRPGTLCTVAGWGRVSMRRGTDTLREVQLRVQRDRQCLRIFGSYDPRRQICVGDRRERKAAFKGDSGGPLLCNNVAHGIVSYGKSSGVPPEVFTRVSSFLPWIRTTMRS
modifications: iodinated (^125I, chloramine-T method) in the direct binding assay only
[5]
  IC50: 100 nM
[6]
  IC50: 100 nM
[7]
  Kd: 85 nM
